Results on 97 compounds are retold here after the RepoRT retention time repository (doi:10.1016/j.jhazmat.2019.121712).

This series is described as follows: Thermo Scientific Acclaim RSLC 120 C18, 100 × 2.1 mm, 2.2 µm, 30 °C; A: 90% water + 10% methanol + 0.01% formic acid + 5 mM ammonium formate; B: methanol + 0.01% formic acid + 5 mM ammonium formate; gradient (min/%B) 0.1/1 3/39 14/99.9 16/99.9. The following applies: stereoisomer not certain.
As to `CCCCCn1cc(C(=O)NCc2ccccc2)c2ccccc21`, the LC retention time was 11.2 min.

Take `CNC(=O)ON=CC(C)(C)S(C)=O` (configuration not stated): the LC retention time amounted to 3.5 min.

With `COC=C(C(=O)O)c1ccccc1Oc1cc(Oc2ccccc2C#N)ncn1`, the LC retention time was 8.18 min.

Regarding `Nc1nc(N)c2nc(-c3ccccc3)c(N)nc2n1`, the LC retention time came to 4.68 min.

Take `CC(CCN1CCOCC1)OC(=O)C1(c2ccccc2)CCOCC1` (configuration not stated): the LC retention time worked out at 6.12 min.

On to `COc1cc(NS(=O)(=O)c2ccc(NC(C)=O)cc2)nc(OC)n1`, for which the LC retention time came out at 6.23 min.

Turning to `COCCCOc1cc(CC(CC(N)C(O)CC(C(=O)NCC(C)(C)C(N)=O)C(C)C)C(C)C)ccc1OC` (configuration not stated), the LC retention time amounted to 8.87 min.

As for `COc1ccc(CCNCCCC(C#N)(c2ccc(OC)c(OC)c2)C(C)C)cc1OC` (configuration not stated), the LC retention time worked out at 6.96 min.

For `CCN(CC)C(=O)C(C#N)=Cc1cc(O)c(O)c([N+](=O)[O-])c1`, the LC retention time is 6.89 min.

In the case of `CC=C(C)C(=O)OC1CC(OC(C)=O)C2(C(=O)OC)COC3C2C12COC(O)(C(=O)OC)C2C(C)(C12OC1(C)C1CC2OC2OC=CC21O)C3O` (configuration not stated), the LC retention time stood at 7.56 min.

As for `CCc1cc(OC)c(CC(C)N)cc1OC` (configuration not stated), the LC retention time came out at 6.88 min.

With `CCNc1nc(NC(C)C)[nH]c(=O)n1`, the LC retention time was 5.03 min.

For `CSc1ccc2c(c1)N(CCC1CCCCN1C)c1ccccc1S2=O` (configuration not stated), the LC retention time stood at 6.64 min.

`CCC(C)C(=O)OC1CC(O)C=C2C=CC(C)C(CCC(O)CC(O)CC(=O)O)C21` (configuration not stated): the LC retention time was found to be 8.36 min.

In the case of `CCOC(=O)C(CCc1ccccc1)NC1CCCN2CCCC(C(=O)O)N2C1=O` (configuration not stated), the LC retention time is 7.94 min.

As for `CCCCCCCn1cc(C(=O)c2cccc3ccccc23)c2ccccc21`, the LC retention time was determined as 13.4 min.

For the compound `CC(C)(C)NCC(O)COc1cccc2c1CCC(=O)N2` (configuration not stated), the LC retention time stood at 3.91 min.

Regarding `Cc1c(C(C)C)c(=O)n(-c2ccccc2)n1C`, the LC retention time was 7.23 min.

Consider `CSc1nc(N)nc(NC(C)(C)C)n1`, for which the LC retention time stood at 8.43 min.

Take `CC(C)C(O)(C(=O)OCC1=CC[N+]2([O-])CCC(O)C12)C(C)O` (configuration not stated): the LC retention time is 3.94 min.

With `CNCC(O)c1ccc(O)cc1` (configuration not stated), the LC retention time was 1.6 min.

On to `CCC(=O)C(CC(C)N(C)C)(c1ccccc1)c1ccccc1` (configuration not stated), for which the LC retention time worked out at 8.04 min.

On to `CCCc1nc(C)c2c(=O)[nH]c(-c3cc(S(=O)(=O)N4CCN(CC)CC4)ccc3OCC)nn12`, for which the LC retention time came out at 8.11 min.

Consider `COc1ccc2c(c1O)-c1c3c(cc4c1C(C2)N(C)CC4)OCO3` (configuration not stated), for which the LC retention time was found to be 4.36 min.

As for `CNC(C)C(=O)c1ccccc1` (configuration not stated), the LC retention time is 3.68 min.

As for `COc1cc2c(c(OC)c1OC)-c1ccc(OC)c(=O)cc1C(NC(C)=O)CC2` (configuration not stated), the LC retention time is 6.43 min.

Consider `c1ccc(CN(CCN2CCCC2)c2ccccc2)cc1`, for which the LC retention time turned out to be 7.19 min.

On to `COc1cccc(N(C)C(=S)Oc2cccc(C(C)(C)C)c2)n1`, for which the LC retention time amounted to 12.5 min.

As to `COC(=O)c1ccccc1C(=O)c1ccc(OCCN2CCCCC2)cc1`, the LC retention time was 5.44 min.

As to `CC#Cc1cc(C)nc(Nc2ccccc2)n1`, the LC retention time came to 10.2 min.

Regarding `CCCSc1ccc2nc(NC(=O)OC)[nH]c2c1`, the LC retention time worked out at 9.19 min.

`CSC1=NC(C)(c2ccccc2)C(=O)N1Nc1ccccc1` (configuration not stated): the LC retention time was determined as 9.22 min.

As to `CC(=O)Oc1cccc2[nH]cc(CCN(C(C)C)C(C)C)c12`, the LC retention time was 4.88 min.

As to `COc1cc(OC)nc(Oc2cccc(Oc3nc(OC)cc(OC)n3)c2C(=O)O)n1`, the LC retention time was found to be 8.86 min.

Consider `CCCCn1cc(C(=O)c2c(C)ccc3ccccc23)c2ccccc21`, for which the LC retention time worked out at 12.3 min.

As to `Cc1cccc(OCC(O)CNC(C)C)c1` (configuration not stated), the LC retention time turned out to be 5.29 min.

Consider `CNC(=C[N+](=O)[O-])NCCSCc1csc(CN(C)C)n1`, for which the LC retention time was 2.96 min.

Regarding `CC(C)(C)NC(=O)C1CN(Cc2cccnc2)CCN1CC(O)CC(Cc1ccccc1)C(=O)NC1c2ccccc2CC1O` (configuration not stated), the LC retention time was 9.79 min.

With `Oc1ccc2c3c1OC1C(O)CCC4(O)C(C2)N(CC2CCC2)CCC314` (configuration not stated), the LC retention time is 4.17 min.

For the compound `CCC12CCCN3CCc4c(n(c5ccccc45)C(O)(C(=O)OC)C1)C32` (configuration not stated), the LC retention time is 5.04 min.

As to `CC=C1CC(C)C(O)(CO)C(=O)OCC2=CCN3CCC(OC1=O)C23` (configuration not stated), the LC retention time was 4.01 min.

In the case of `Cc1c(N(C)CS(=O)(=O)O)c(=O)n(-c2ccccc2)n1C`, the LC retention time was 4.49 min.

Take `CC(=O)c1ccc2c(c1)N(CC(C)N(C)C)c1ccccc1S2` (configuration not stated): the LC retention time is 7.26 min.

As for `O=C(O)C(c1ccccc1)C1CCCCN1` (configuration not stated), the LC retention time worked out at 4.61 min.

Consider `CN(C)CCC=C1c2ccccc2C=Cc2ccccc21`, for which the LC retention time is 7.95 min.

Regarding `CCCCOc1ccc(C(=O)OCCN(CC)CC)cc1`, the LC retention time was determined as 11.3 min.

Turning to `O=C(c1cccc2ccccc12)c1cn(CC2CCCCC2)c2ccccc12`, the LC retention time came to 13 min.

`CCN(CC)CCNC(=O)COc1ccc(OC)cc1`: the LC retention time stood at 4.31 min.

In the case of `CCOC(=O)N(C)C(=O)CSP(=S)(OCC)OCC`, the LC retention time turned out to be 10.2 min.

With `COc1ccc2c3c1OC1C(O)C=CC4C(C2)N(C)CCC341` (configuration not stated), the LC retention time stood at 3.4 min.

For the compound `O=C(c1cccc2ccccc12)c1cn(CCCCCO)c2ccccc12`, the LC retention time is 10 min.

As to `CCOP(=S)(OCC)SCCS(=O)(=O)CC`, the LC retention time stood at 8.02 min.

On to `CCOP(=S)(OCC)Oc1ccc(S(C)(=O)=O)cc1`, for which the LC retention time turned out to be 8.48 min.

As to `NC1CCc2cc3c(cc2C1)OCO3` (configuration not stated), the LC retention time came to 4.32 min.

In the case of `Cc1ccc(NC(=O)NC(C)(C)c2ccccc2)cc1`, the LC retention time was determined as 9.68 min.

With `Nc1nc2c(ncn2CCC(CO)CO)c(=O)[nH]1`, the LC retention time was 2.98 min.

Regarding `CN(C)CCCN1c2ccccc2Sc2ccccc21`, the LC retention time amounted to 7.69 min.

In the case of `CN1CCC(OC(c2ccccc2)c2ccccc2)CC1`, the LC retention time worked out at 7.23 min.

For `CC(C)OC(=O)Nc1ccccc1`, the LC retention time amounted to 8.11 min.

Regarding `NC(=O)N1c2ccccc2C=Cc2ccccc21`, the LC retention time is 7.36 min.

With `CCC(c1cccc(O)c1)C(C)CN(C)C` (configuration not stated), the LC retention time is 5.01 min.

On to `Cc1oc(C)c(C(=O)Nc2ccccc2)c1C`, for which the LC retention time amounted to 8.79 min.

As for `O=c1[nH]c2ccccc2s1`, the LC retention time turned out to be 6.53 min.

`CC12CCC(=O)C=C1CCC1C2CCC2(C)C(OC(=O)c3ccccc3)CCC12` (configuration not stated): the LC retention time stood at 13.8 min.

Turning to `CCCc1nn(C)c2c(=O)[nH]c(-c3cc(C(C)=O)ccc3OCC)nc12`, the LC retention time is 9.81 min.

As for `CCCCCCCCCCCC(CC1OC(=O)C1CCCCCC)OC(=O)C(CC(C)C)NC=O` (configuration not stated), the LC retention time amounted to 14.6 min.

`CCN(CC)CC(=O)Nc1c(C)cccc1C`: the LC retention time was found to be 4.54 min.

With `CNCCCC1c2ccccc2C=Cc2ccccc21`, the LC retention time worked out at 7.99 min.

Regarding `CCCCCn1cc(C(=O)NC23CC4CC(CC(C4)C2)C3)c2ccccc21`, the LC retention time amounted to 13.2 min.

Turning to `O=C1OCC(O)=C1Cc1ccccc1`, the LC retention time was 5.06 min.

In the case of `CC[N+]1(C)C2CC(OC(=O)C(CO)c3ccccc3)CC1C1OC12` (configuration not stated), the LC retention time came to 3.87 min.

Regarding `CSc1nnc(C(C)(C)C)c(=O)[nH]1`, the LC retention time was determined as 7.46 min.

Turning to `CCN(CC)CC(=O)Nc1c(C)cccc1C(=O)OC`, the LC retention time was found to be 4.59 min.

As to `CC=CCC1=C(C)C(OC(=O)C2C(C=C(C)C(=O)OC)C2(C)C)CC1=O` (configuration not stated), the LC retention time worked out at 11.6 min.

In the case of `CCC(C)(CC)c1cc(NC(=O)c2c(OC)cccc2OC)on1`, the LC retention time is 9.42 min.

Consider `Cc1occc1C(=O)Nc1ccccc1`, for which the LC retention time was 7.59 min.

`CN1CCCC1c1cccnc1` (configuration not stated): the LC retention time was 2.41 min.

On to `C=CC(=O)NC(C)(C)CS(=O)(=O)O`, for which the LC retention time was determined as 2.8 min.

On to `CCCCc1oc2ccc(NS(C)(=O)=O)cc2c1C(=O)c1ccc(OCCCN(CCCC)CCCC)cc1`, for which the LC retention time was 10.1 min.

Turning to `CCCCOc1cc(C(=O)NCCN(CC)CC)c2ccccc2n1`, the LC retention time came out at 8.41 min.

As to `OC(c1ccccc1)(c1ccccc1)C1CCNCC1`, the LC retention time was 6.19 min.

`NCCc1cnc[nH]1`: the LC retention time amounted to 1.58 min.

Take `CCOc1ccc(NC(=O)CC(C)O)cc1` (configuration not stated): the LC retention time was 6.27 min.

For the compound `CC(C)N(CCc1c[nH]c2cccc(O)c12)C(C)C`, the LC retention time was 4.34 min.

For `CCCc1nn(C)c2c(=O)[nH]c(-c3cc(S(=O)(=O)N4CCN(CCO)CC4)ccc3OCC)nc12`, the LC retention time amounted to 7.83 min.

Turning to `O=C(Oc1ccccc1)c1ccccc1C(=O)Oc1ccccc1`, the LC retention time came out at 11.2 min.

As for `CCc1cc2cc(OC)c(OC)cc2c(Cc2ccccc2)n1`, the LC retention time is 8.29 min.

`Cc1c(NC(=O)c2cccnc2)c(=O)n(-c2ccccc2)n1C`: the LC retention time came out at 4.56 min.

Consider `CC(=O)CCCCn1c(=O)c2c(ncn2C)n(C)c1=O`, for which the LC retention time stood at 5.23 min.

As for `c1ccc(C(CCN2CCCCC2)c2ccccc2)cc1`, the LC retention time was 6.82 min.

For `CNC(=O)C=C(C)OP(=O)(OC)OC`, the LC retention time worked out at 4.36 min.

In the case of `CN(C)CCOC(c1ccccc1)c1ccccc1`, the LC retention time was found to be 6.63 min.

In the case of `CC(C)NCC(O)c1ccc(N)c(C#N)c1` (configuration not stated), the LC retention time turned out to be 2.99 min.

As to `O=C1OCCN1N=Cc1ccc([N+](=O)[O-])o1`, the LC retention time came out at 4.19 min.

Turning to `CN1CCC(=C2c3ccccc3CCc3cccnc32)CC1`, the LC retention time came out at 5.99 min.

As for `COc1cc(C(=O)NCc2ccc(OCCN(C)C)cc2)cc(OC)c1OC`, the LC retention time was determined as 4.86 min.

For `CC(C)(C)NCC(O)COc1ccccc1C#N` (configuration not stated), the LC retention time came to 4.66 min.
